From patent US20070293517A1, “Derivatives Of Chemotherapeutic Agents With A Formaldehyde Releasing Moiety” (RAMOT AT TEL AVIV UNIVERSITY LTD., priority 2004, published 2007)

What was measured:
MES SA DXS = assay: Proliferation assay, MES SA DXS cells; assay type: cell-based, human
From the text: (§1) Cells: The human breast cancer cell lines MCF-7 and MCF-7 DX, were obtained from Dr. R. Supino (Laboratorio Oncologia, Milano, Italy); the murine 3LLD122 highly metastatic Lewis lung carcinoma cell line was obtained from Dr. Eisenbach L, the Weizmann Inst., Israel. The following cell lines were purchased from the ATCC, USA: CT-26, an N-nitroso-N-methylurethane-(NNMU) induced murine (BALB-C) colon carcinoma; Panc02, a mouse (C57/Bl) pancreas adenocarcinoma; HT-49, a human colorectal adenocarcinoma; LS1034, a multidrug resistant human colorectal carcinoma; BxPC-3 human pancreas adenocarcinoma; MES-SA and MES-SA-DXS, human uterine sarcoma sensitive and multidrug resistant, respectively; and Human prostate carcinoma 22RV1, a subclone of CWR22 cells.
(§2) The cells were maintained in DMEM growth medium supplemented with 10% heat inactivated fetal calf serum, 2 mM glutamine, penicillin (250 units/ml) and streptomycin (125 μg/ml) in a humidified 5% CO2/air atmosphere at 37° C.
(§3) Proliferation assay: cells at a density of 3-5×10^4 cells/ml in 200 μl medium supplemented with 10% FCS were seeded in tissue culture 96-well plates for 24 hours, and were then exposed for 72 hours to a novel derivative of a chemotherapeutic agent (in quadruplicate) as specified. After 3 days, the cells were rinsed with PBS, and fixed with ethanol (70%) for 30 minutes. The ethanol was thereafter discarded, 200 μl of 10 μg/ml HOECHST fluorescent dye (Sigma) solubilized in PBS were added and the fluorescence was measured at 390-460 nm with a FluoStar fluorometer. MTT solution (10 ml of 5 mg/ml MTT (Sigma) in PBS) was added, and the plate was incubated for 3 hours. Formazan crystals were dissolved with 140 ml of 0.04 HCl-isopropanol. The optical density of the wells was measured with a microplate reader at 540 nm.
(§4) IC50 and IC90 values were determined from the best-fitted curve where the percentages of survival were 50 or 90 respectively.

MCF-7 DX = assay: Proliferation assay, MCF-7 DX cells; assay type: cell-based, human
Description: Cells: The human breast cancer cell lines MCF-7 and MCF-7 DX, were obtained from Dr. R. Supino (Laboratorio Oncologia, Milano, Italy); the murine 3LLD122 highly metastatic Lewis lung carcinoma cell line was obtained from Dr. Eisenbach L, the Weizmann Inst., Israel. […]
as §3, with “After 3 days, the cells were rinsed with PBS, and fixed with ethanol (70%) for 30 minutes.” left out, “MTT solution (10 ml of 5 mg/ml MTT (Sigma) in PBS) was added, and the plate was incubated for 3 hours. Formazan crystals were dissolved with 140 ml of 0.04 HCl-isopropanol.” left out
as §4

various cell lines = assay: Dose response studies in various cell lines, absence and presence of semicarbazide; assay type: cell-based; conditions: 0.5 mM, absence of chemotherapeutic agents
Description: as §3
Semicarbazide sensitive amine oxidase is a source of formaldehyde and is therefore a marker for the effect of formaldehyde. It has been shown that semicarbazide traps formaldehyde and reduces its concentration inside the cell (Nudelman et al. J. Med. Chem., 2005, 48, 1047-1054). Thus, the critical role of formaldehyde can be confirmed by reversal of formaldehyde-mediated effects by the addition of semicarbazide.
Tables 3 and 4 below, as well as FIGS. 7A, 7B and 8A-8D present the dose response studies performed with various cell lines in the absence and presence of semicarbazide, the formaldehyde trapping agent.

[1] = tested on: sensitive and resistant uterine cancer cells (MES-SA, MES-SA DXS); assay: Proliferation/survival, sensitive and resistant uterine cancer cells (both lines); assay type: cell-based, human
From the text: as §1, §3, §4

[2] = tested on: HT-29 human colon carcinoma; assay: Xenograft flank colon carcinoma model, HT29; assay type: in vivo; conditions: nude mice
Description: Xenograft flank colon carcinoma models: Eight weeks old, male CD1 nude mice (Harlan, Israel) were inoculated sc in the flanks with 5×10^6 HT29 or LS1034 cells. When tumor volume reached 50-100 mm^3, treatment with derivatives of chemotherapeutic agents according to the present embodiments commenced and was given by gavage five times a week for the duration of the experiment at the specified doses. Tumor volume (determined by caliper) and body weights were measured twice weekly. Tumor volume was measured (mm) using the formula for an ellipsoid sphere: Length×Width^2/2=Volume (mm)^3 This commonly used formula was also used to calculate tumor weight, assuming unit density (1 mm^3=1 mg). Serum PSA or CEA: […] At the end of the experiment blood samples were drawn from the eyes of mice (anesthetized slightly by inhalation of ether) or from the hearts of sacrificed animals.

Panc 02 = assay: Proliferation assay, Panc 02 cells; assay type: cell-based; conditions: Mus musculus, Panc02
From the text: as §1, §2, §3, §4

LS-1034 = assay: Proliferation assay, LS-1034 cells; assay type: cell-based, human; conditions: Homo sapiens
From the text: as §1, §2, §3, §4

CT-26 = assay: Proliferation assay, CT-26 cells; assay type: cell-based, murine; conditions: Mus musculus, CT26; CT-26
From the text: as §1, §2, §3, §4

MES SA = assay: Proliferation assay, MES SA cells; assay type: cell-based, human; conditions: Homo sapiens
From the text: as §1, §2, §3, §4

HT-29 = assay: Proliferation assay, HT-29 cells; assay type: cell-based, human; conditions: Homo sapiens
BXPC-3 = assay: Proliferation assay, BXPC-3 cells; assay type: cell-based, human; conditions: Homo sapiens
From the text: as §1, §2, §3, §4

colon carcinoma cells = assay: Viability of colon carcinoma cells (FIG. 12); assay type: cell-based
Description: as §3
Apoptosis assay: Cells (2×10^5 cells/ml) were seeded in 24-well plates and incubated with a derivative of a chemotherapeutic agent according to the present embodiments, as specified, for 24 hours. The cells were thereafter collected and double-stained with annexin V-FITC and propidium iodide, according to the manufacturer's instructions (MBL, Japan). Alive, apoptotic and total dead cells were quantitated by flow cytometry using a FACS calibur cytometer (Becton Dickinson).

Compound: COc1cccc2c1C(=O)c1c(O)c3c(c(O)c1C2=O)C[C@@](O)(C(=O)CO)C[C@@H]3O[C@H]1C[C@H](N)[C@H](O)[C@H](C)O1 [Doxorubicin]
- fold decrease in the inhibitory effect on proliferation, MES-SA DXS compared with the isogenetic non-resistant cell line (MES SA DXS): approximately 30 fold
- fold more resistant to doxorubicin, MCF-7 DX compared with MCF cells (MCF-7 DX): approximately 7 fold
- IC50 (MCF-7 DX; Homo sapiens, MCF7/DX, MCF-7 DX, 7 independent experiments): 392 ± 40 µM

Compound: NNC(N)=O [Semicarbazide, semicarbazide, reference compound]
- effect of semicarbazide alone on the cells (various cell lines): did not affect the cells

Compound: O=c1[nH]c(=O)n(C2CCCO2)cc1F (stereo not shown) [Tegafur, tegafur, reference compound]
- maximal cell killing achieved [1]: 80%
- IC50 (MES SA DXS; Homo sapiens, MES SA DXS): 405 ± 20 µM
- IC90 (MES SA DXS; Homo sapiens, MES SA DXS, tegafur value calculated by extrapolation from the best fitted curve): 1470 ± 96 µM
- CEA level in serum [2]: higher
- tumor growth inhibition ([2]; P<<0.001): substantially inhibited tumor growth
- IC50 (Panc 02): 179 ± 25 µM
- IC90 (Panc 02): 637 ± 66 µM
- IC90 (LS-1034; LS-1034): 1600 ± 240 µM
- IC50 (LS-1034; LS-1034, LS-1034): 519 ± 93 µM
- IC50 (CT-26): 136 ± 19 µM
- IC90 (CT-26): 411 ± 23 µM
- IC50 (MES SA): 337 ± 20 µM
- IC90 (MES SA; tegafur value calculated by extrapolation from the best fitted curve): 1200 ± 97 µM
- IC90 (HT-29; HT-29): 747 ± 52 µM
- IC50 (HT-29; HT-29, HT-29): 201 ± 15 µM
- IC50 (BXPC-3): 172 ± 21 µM
- IC90 (BXPC-3): 688 ± 113 µM

Compound: O=c1cc[nH]c(=O)[nH]1 [uracil, reference compound]
- effect on cancer cell viability (% of control) (colon carcinoma cells): no effect
